# Paper PMC4416907, “An Unexpected Mode Of Binding Defines BMS948 as A Full Retinoic Acid Receptor β (RARβ, NR1B2) Selective Agonist” (PLoS ONE, 2015)
# How the values were obtained:
# human RARα1 = tested on: T1, human RARα1; assay: Transient transactivation reporter assay, (RARE)3x-tk-luciferase in HeLa cells, agonist mode; format: cell-based; conditions: for agonistic activity on RARα-mediated transactivation: HeLa cells, ligand at single selective concentration, compared with 10 nM TTNPB (100%)
# T1 construct: expressed in transfected cells; host or cells: HeLa
# Text: (§1) To evaluate the activity of a panel of synthetic retinoids (Fig 1) on RAR-mediated transactivation, we used HeLa cells transiently transfected with human RARα1,-β2, or—γ2 and a (RARE)3x-tk-luciferase reporter gene. Well characterized full agonist and antagonist retinoids were also used as reference compounds (S2 Fig). […] To further characterize the activation profile of BMS compounds, transfected cells were exposed to a range of ligand concentrations to establish dose-response curves.
# (§2) (A to C) HeLa cells were transiently cotransfected with the reporter (RARE)3x-tk-Luc and RARα (A), RARβ (B) or RARγ (C), as indicated, to assess the RAR agonist potential of synthetic RAR ligands.
# (§3) HeLa cells were cultured in DMEM with Glutamax and 10% (v/v) FCS and transfected using JetPei transfectant (Ozyme). After 24 h, the medium was changed to a medium containing the indicated ligands or vehicle. Cells were lysed and assayed for reporter expression 48 h after transfection. The luciferase assay system was used according to the manufacturer’s instruction (Promega). In each case results were normalized to coexpressed β–galactosidase. Each transfection was carried out in duplicate and repeated each three to six times.
# hRARβL298F = tested on: T2, hRARβL298F; assay: Transient transactivation assay with mutant hRARβL298F in HeLa cells; format: cell-based, human
# T2 construct: expressed in transfected cells; host or cells: HeLa
# Description: The construct was verified by DNA sequencing.
# as §3
# (EPS) Click here for additional data file.
# human RARγ2 = tested on: T3, human RARγ2; assay: Transient transactivation reporter assay, (RARE)3x-tk-luciferase in HeLa cells, agonist mode; format: cell-based
# T3 construct: expressed in transfected cells; host or cells: HeLa
# Text: as §1, §2, §3
# human RARβ2 = biological target: T4, human RARβ2 (Homo sapiens, UniProt P10826); assay: as above; format: cell-based
# T4 construct: expressed in transfected cells; host or cells: HeLa
# T4 sequence (P10826 1-448 isoform P10826-2): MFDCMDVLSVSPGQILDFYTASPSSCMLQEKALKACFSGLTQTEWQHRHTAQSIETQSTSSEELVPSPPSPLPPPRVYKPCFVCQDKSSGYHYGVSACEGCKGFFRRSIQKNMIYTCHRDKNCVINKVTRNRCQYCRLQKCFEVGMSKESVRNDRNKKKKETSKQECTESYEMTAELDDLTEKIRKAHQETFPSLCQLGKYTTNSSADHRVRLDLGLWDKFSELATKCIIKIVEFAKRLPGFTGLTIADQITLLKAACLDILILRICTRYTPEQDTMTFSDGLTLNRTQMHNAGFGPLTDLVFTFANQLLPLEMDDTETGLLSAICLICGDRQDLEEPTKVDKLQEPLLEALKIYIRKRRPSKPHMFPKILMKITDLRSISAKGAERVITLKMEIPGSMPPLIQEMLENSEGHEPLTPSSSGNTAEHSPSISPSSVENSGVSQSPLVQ
# Text: as §1, §2, §3
# RARβ-SMRT interaction = tested on: T5, RARβ-SMRT interaction; assay: Mammalian two-hybrid assay Gal-SMRT / VP16-RARβLBD in HeLa cells; format: cell-based; conditions: BMS compounds at 1 μM, TTNPB 10 nM; 100% = absence of ligand
# T5 construct: expressed in transfected cells; host or cells: HeLa
# Text: (§4) Supplementary file pone.0123195.s005.eps: S5 Fig Molecular basis of BMS641 partial activity. According to the current model of gene regulation by RARs, the agonistic property of a given retinoid depends on its ability to induce coregulator recruitment. RAR agonists dissociate corepressors (such as SMRT) and induce the recruitment coactivators (such as TIF2), resulting in transactivation. […] BMS641 was therefore categorized as a partial RARβ agonist. To further characterize the partial activity of BMS641, we used two-hybrid assays to monitor the interaction between RARβ and transcriptional coregulators in the presence of various retinoids. In these assays, a chimeric luciferase-based reporter gene ((17 m)5x-βGlob-Luc) is transfected together with two expression vectors. One expresses a fusion protein (Gal-TIF2 or Gal-SMRT) that binds through the Gal DNA binding domain (Gal) to the pentamer of the “17m” DNA recognition site in the reporter gene and contains the nuclear receptor interacting domain of the coregulator. The other vector expresses a second fusion protein composed of the VP16 acidic transcription activation domain, and the LBD of RARβ. […] Strikingly, the RARβ-SMRT interaction was maintained in the presence of BMS641, in agreement with the partial agonistic activity of this compound. […] BMS641 induces reduced coactivator recruitment, but cannot dissociate corepressors. […]
# RARγ [1] = tested on: T6, RARγ; assay: Transient transactivation assay, antagonist mode (competition with TTNPB-induced activity); format: cell-based, human; conditions: reporter activated with 3 nM TTNPB (100%); retinoids at 1 μM or increasing amounts
# T6 construct: expressed in transfected cells; host or cells: HeLa
# Description: (§5) To this end, transient transactivation assays were conducted in order to assess the ability of the synthetic retinoids to affect TTNPB-induced RAR activity. […] Competition curves with increasing concentrations of BMS411 yielded an IC50 of roughly 30 nM for RARα in keeping with the high affinity of this compound for this receptor subtype (Fig 3D). […] Overall, our data lead to the general conclusion that BMS948 is a full RARβ-selective agonist.
# (§6) Fig 3 BMS948 is an RARβ-selective ligands. (A to C) Transient transactivation assays as in Fig 2 to assess the antagonist potential of synthetic RAR ligands (RARα (A), RARβ (B) or RARγ (C)).
# as §3
# RARβ [2] = tested on: T7, RARβ; assay: as above; format: cell-based, human; conditions: reporter activated with 3 nM TTNPB (100%); retinoids at 1 μM or increasing amounts
# T7 construct: expressed in transfected cells; host or cells: HeLa
# Description: as §5, §6, §3
# RARβ-TIF2 interaction = tested on: T8, RARβ-TIF2 interaction; assay: Mammalian two-hybrid assay Gal-TIF2 / VP16-RARβLBD in HeLa cells; format: cell-based; conditions: BMS compounds at 1 μM, TTNPB 10 nM
# T8 construct: expressed in transfected cells; host or cells: HeLa
# Text: as §4
# RARβ→γ = tested on: T9, RARβ→γ; assay: Transient transactivation assay with chimeric LBP mutant RARβ→γ in HeLa cells; format: cell-based
# T9 construct: expressed in transfected cells; host or cells: HeLa
# Text: (§7) Supplementary file pone.0123195.s004.eps: S4 Fig The methionine 272 of RARγ LBP is a most important discriminatory element for the RARβ-specific response to BMS948. […] To investigate the role of these residues in the RARβ–specific response to BMS948, we compared the agonistic and antagonistic potentials of this compound for RARβ and RARγ, as well as chimeric RAR mutants in which LBPs were interconverted (denoted RARβ→γ and RARγ→β). Dose-response curves were established from transient transfection in HeLa cells of these proteins and a (RARE)3x-tk-luciferase reporter gene as described in Figs 2 and 3. […] (A) HeLa cells were transiently cotransfected with the reporter (RARE)3x-tk-Luc and RARβ (open circles), RARγ (closed diamonds), RARγ→β in which the methionine residue 272 in RARγ LBP is replaced by an isoleucine residue (open squares), or RARβ→γ in which the isoleucine residue 263 in RARβ LBP is replaced by a methionine residue (closed triangles) to assess the agonist potential of BMS948. […] (B) Transient transfection assays in HeLa cells with the reporter (RARE)3x-tk-Luc and RARβ→γ as in (A) to assess the antagonist potential of BMS948 and BMS493. […] (EPS) Click here for additional data file.
# RARγ→β = tested on: T10, RARγ→β; assay: Transient transactivation assay with chimeric LBP mutant RARγ→β in HeLa cells; format: cell-based; conditions: 10^–9 to 10^–6 M; 100% = TTNPB at 10nM
# T10 construct: expressed in transfected cells; host or cells: HeLa
# Text: as §7
# RARα = biological target: T11, RARα (Homo sapiens, UniProt P10276); assay: Transient transactivation assay, antagonist mode (competition with TTNPB-induced activity); format: cell-based; conditions: reporter activated with 3 nM TTNPB (100%); retinoids at 1 μM or increasing amounts
# T11 construct: expressed in transfected cells; host or cells: HeLa
# T11 sequence (P10276 1-462): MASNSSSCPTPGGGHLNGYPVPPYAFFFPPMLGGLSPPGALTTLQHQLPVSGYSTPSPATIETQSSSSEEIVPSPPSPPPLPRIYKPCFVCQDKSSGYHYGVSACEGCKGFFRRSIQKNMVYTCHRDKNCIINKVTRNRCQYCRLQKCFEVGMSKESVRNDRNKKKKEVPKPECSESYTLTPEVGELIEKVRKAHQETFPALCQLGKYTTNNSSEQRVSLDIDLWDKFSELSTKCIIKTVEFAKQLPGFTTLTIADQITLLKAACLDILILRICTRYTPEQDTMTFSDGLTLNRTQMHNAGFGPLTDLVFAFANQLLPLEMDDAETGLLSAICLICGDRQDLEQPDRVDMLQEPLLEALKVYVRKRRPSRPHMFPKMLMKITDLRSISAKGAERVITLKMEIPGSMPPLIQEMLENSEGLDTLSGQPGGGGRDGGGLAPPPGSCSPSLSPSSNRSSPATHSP
# Description: as §5, §6, §3
# RARγ [3] = conditions: also personal data not shown; cited from earlier work
# RARβ [4] = conditions: cited from earlier work
# [5] = 10^–10 to 10^–6 M, only at the highest ligand concentration used (1 μM)
SMILES,agonistic activity on RARα-mediated transactivation (human RARα1),"efficacy on RARβL298F in dose-response curves (hRARβL298F; S6 Fig, increasing concentrations) [%]","transcriptional activity on RARβL298F as compared to TTNPB (hRARβL298F; retinoids at 0.1 μM, 10 nM TTNPB = 100% with wild-type hRARβ)",activation of RARγ in dose-response curves (human RARγ2; [5]),"agonistic activity on RARγ-mediated transactivation (human RARγ2; HeLa cells, ligand at single selective concentration, compared with 10 nM TTNPB (100%))",activation of RARα in dose-response curves (human RARα1; [5]),"EC50 (human RARβ2; dose-response 10^–10 to 10^–6 M, read-out: EC50 transactivation for RARβ) [nM]","agonistic activity on RARβ-mediated transactivation (human RARβ2; ligand at single selective concentration, compared with 10 nM TTNPB (100%))",RARβ-SMRT interaction (corepressor binding) (RARβ-SMRT interaction),antagonistic activity on TTNPB-induced RARγ transactivation (RARγ [1]),antagonistic activity on TTNPB-induced RARβ transactivation (RARβ [2]),RARβ-TIF2 interaction (coactivator recruitment) (RARβ-TIF2 interaction),antagonist potential on RARβ→γ (RARβ→γ; 3 nM TTNPB (100%) plus compound at 1 μM),"agonist potential on RARβ→γ (RARβ→γ; 10^–9 to 10^–6 M, 100% = TTNPB at 10nM, only at high concentration)",agonist potential on RARγ→β (RARγ→β),antagonistic activity on TTNPB-induced RARα transactivation (RARα),reported activity on RARγ (RARγ [3]),reported activity on RARβ (RARβ [4])
"CC1(C)CCC(C)(C)c2cc(C(=O)Nc3ccc(C(=O)O)cc3)ccc21 [Am580, reference compound]",full agonistic activity,–,–,–,–,–,–,–,–,–,–,–,–,–,–,–,–,–
O=C(O)c1ccc(NC(=O)c2ccc3cccc(-c4ccccc4)c3c2)cc1 [BMS948],very weak activity,70,50–60%,very weakly,very weak activity,very weakly,~100,full RARβ-agonist,decreased,very weak,no,optimal,did not reduce TTNPB-induced activity,very weak activation,potent full agonist,very weak,–,–
CN1c2cc3c(cc2N=C(c2ccc(C(=O)O)cc2)c2ccccc21)C(C)(C)CCC3(C)C [LE135],–,–,–,–,–,–,–,–,–,–,–,–,–,–,–,–,some RARγ partial agonistic activity,antagonist showing some selectivity for RARβ
